Where a SMILES comes first, the peptide text is derived from it. [ ]: non-standard residue; d: D form. pS = N[C@@H](COP(=O)(O)O)C(=O)O
Test: Intra-Oral Caries Test (Test 2)
Assay type: in vivo
Conditions: plaque exposed twice a day to the peptide T1 solution
Procedure: The anticariogenicity of phosphopeptide T1 was determined using a modification of the intra-oral caries test of Koulourides and Ostrom (Caries Res. 10:442-482, 1976). Enamel slabs were inset in a removable intra-oral appliance to simulate an approximal area. This was done on both sides of the removable appliance (left and right). The appliance was worn to allow plaque accumulation in the simulated approximal areas. Eight times a day the appliance was removed and placed in a solution at 37° C. The solution was 2% w/v sucrose, 2% w/v glucose, 140 mM KCl, 20 mM NaCl at pH 7.0. Twice a day the right side enamel slabs received exposure to a solution containing 1.8% w/v calcium phosphate T1 in 140 mM KCl, 20 mM NaCl at pH 7.0, while the left side received only the salt solution. At the completion of the experiment the enamel slabs were removed, sectioned and subjected to microradiography and microhardness testing. […] The results were confirmed by microhardness analysis. Plaque was also taken from both sides of the appliance and analysed for calcium phosphate, serine phosphate and peptide T1 using a competitive, quantitative, enzyme-linked immunosorbent assay (ELISA) utilising monoclonal antipeptide T1 antibodies.

## CC[C@H](C)[C@H](NC(=O)[C@H](COP(=O)(O)O)NC(=O)[C@H](CCC(=O)O)NC(=O)[C@H](C)NC(=O)[C@H](CCC(=O)O)NC(=O)[C@H](CCSC)NC(=O)[C@@H](N)CCC(=O)O)C(=O)N[C@@H](COP(=O)(O)O)C(=O)N[C@@H](COP(=O)(O)O)C(=O)N[C@@H](COP(=O)(O)O)C(=O)N[C@@H](CCC(=O)O)C(=O)N[C@@H](CCC(=O)O)C(=O)N[C@H](C(=O)N[C@H](C(=O)N1CCC[C@H]1C(=O)N[C@@H](CC(N)=O)C(=O)N[C@@H](COP(=O)(O)O)C(=O)N[C@H](C(=O)N[C@@H](CCC(=O)O)C(=O)N[C@@H](CCC(N)=O)C(=O)N[C@@H](CCCCN)C(=O)O)C(C)C)C(C)C)[C@@H](C)CC [T1, Glu-Met-Glu-Ala-Glu-Pse-Ile-Pse-Pse-Pse-Glu-Glu-Ile-Val-Pro-Asn-Pse-Val-Glu-Gln-Lys] (H-EMEAE[pS]I[pS][pS][pS]EEIVPN[pS]VEQK-OH)
  level of peptide in plaque (ELISA): at least 0.4 % w/wet wt of plaque

Source: patent US5015628A, “Anticariogenic phosphopeptides” (The University of Melbourne, priority 1986, dated 1991)
